In patent US8597649B2, “Antagonist antibodies directed against calcitonin gene-related peptide and methods using same” (Labrys Biologics, Inc., priority 2005, dated 2013):

Assays:
[1] = test system: skin vasodilatation induced by stimulation of rat saphenous nerve; test: skin vasodilatation induced by stimulation of rat saphenous nerve; type: in vivo; settings: 400 nmol/kg i.v., 3-5 min before stimulation, compared to the control (FIG. 2A, 2B)
Description: To test antagonist activity of anti-CGRP antibodies, effect of the antibodies on skin vasodilatation by stimulation of rat saphenous nerve was tested using a rat model described previously. Escott et al., Br. J. Pharmacol. 110:772-776, 1993. In this rat model, electrical stimulation of saphenous nerve induces release of CGRP from nerve endings, resulting in an increase in skin blood flow. Blood flow in the foot skin of male Sprague Dwaley rats (170-300 g, from Charles River Hollister) was measured after saphenous nerve stimulation. Rats were maintained under anesthesia with 2% isoflurane. Bretylium tosylate (30 mg/kg, administered i.v.) was given at the beginning of the experiment to minimize vasoconstriction due to the concomitant stimulation of sympathetic fibers of the saphenous nerve. Body temperature was maintained at 37° C. by the use of a rectal probe thermostatically connected to a temperature controlled heating pad. […]
For experiments shown in FIGS. […] Skin blood flow, measured as blood cell flux, was monitored with a laser Doppler flow meter. […]
For experiments shown in FIGS. 4A and 4B, saphenous nerve was exposed surgically before antibody administration. […] Skin blood flow, measured as blood cell flux, was monitored with a laser Doppler flow meter. […]

[2] = test system: middle meningeal artery (MMA) dilation evoked by electrical field stimulation; test: Dural artery (closed cranial window) assay; type: in vivo; settings: rat, i.v.
Description: Closed Cranial Window Model: The purpose of this experiment was to determine the acute effect of anti-CGRP antagonist antibodies and compare it with the acute effect of the CGRP receptor antagonist BIBN4096BS. Experiments were carried out as previously described (Williamson et al., Cephalalgia 17(4):518-24 (1997)) with the following modifications. Sprague Dawley rats (300-400 g) were anesthetized with 70 mg/kg i.p. pentobarbital. Anesthesia was maintained with 20 mg/kg/hr i.v. pentobarbital. Rats were cannulated through the jugular vein for delivery of all drugs. Blood pressure was monitored with a probe (mikro-tip catheter, Millar Instruments) threaded through the femoral artery into the abdominal aorta. The rats were tracheotomized and breathing rate was maintained at 75 breaths per minute at a volume of 3.5 mL. After fixating the head in a stereotactic instrument and removing the scalp, a 2×6 mm window in the left parietal area just lateral to the sagittal suture was made by thinning the bone with a dental drill. […] Lateral to the electrode window another window of 5×6 mm was created and filled with heavy mineral oil through which the diameter of a branch of the middle meningeal artery (MMA) was continuously monitored with a CCD camera and a video dimension analyzer (Living Systems). […] All data was recorded using chart software (ADInstruments). […]

Row | Compound | blood flow increase stimulated by applying electronic pulses on saphenous nerve [1] | time after dosing by which the effect has completely disappeared ([2]; 300 μg/kg BIBN4096BS (FIG. 9)) [min] | block of MMA dilation evoked by electrical field stimulation ([2]; acute, 10 mg/kg mu7E9, 300 μg/kg BIBN4096BS (FIG. 9))
1 | CGRP 8-37: Positive control compound CGRP 8-37 (vasodilatation antagonist) (VTHRLAGLLSRSGGVVKNNFVPTNVGSKAF) [reference compound] | inhibited |  | 
2 | NCCCC[C@H](NC(=O)[C@@H](Cc1cc(Br)c(O)c(Br)c1)NC(=O)N1CCC(N2Cc3ccccc3NC2=O)CC1)C(=O)N1CCN(c2ccncc2)CC1 [BIBN4096BS] |  | ≤ 90 | blocks
